Measured values reported in patent publication US20230149336A1, “PREPARATION FOR USE AS ANTIOXIDANT” (Evonik Operations GmbH, priority 2020, published 2023).
“Also recorded” adds a separate entry of the source.

Columns and labels:
mice mesenteric arteries [1] = test: Angiotensin II-induced ROS formation (DHE, DHR123); type: cell-based; conditions: 50 μg/mL for 1 hour, then Angiotensin II 15 minutes; DHE and DHR123; mixtures ratio 1:1
Protocol: Dihydroethidium (DHE, Life Technologies) was used to evaluate production of reactive oxygen species (ROS) in mouse mesenteric arteries, as previously described. Briefly, vessels were incubated with 5 μM of DHE for 20 min and subsequently observed under a fluorescence microscope (Zeiss). Images were acquired by a digital camera system (Olympus Soft Imaging Solutions). […] After treatment, vessels were incubated with Krebs solution containing 5 μM DHR123 for 30 min at 37° C., and then washed two times with PBS prior to fluorescence measurement using a fluorescence microplate reader (TECAN infinite 200 Pro).
To investigate the capability of Healthberry 865® and the single anthocyanins contained on the modulation of oxidative stress, several methodological approaches were performed measuring both, total anti reactive oxygen species (ROS) capacity and their specific action on the modulation of the main machinery of ROS production, the activity of NADPH oxidase enzyme. […] The antioxidant vascular actions of single anthocyanins contained in Healthberry 865®: Delphinidin-3-rutinoside (D3-rut), Cyanidin-3-rutinoside (C3-rut), Delphinidin glucoside (DP3-glu), Cyanidin-3-glucoside (C3-glu), Petunidin-3-glucoside (PT3-glu), Delphinidin galactoside (DP3-gal), Peonidin-3-galactoside (PEO3-gal), Delphinidin-3-arabinoside (DP3-ara), Malvidin-3-galactoside (MAL3-gal), Malvidin-3-glucoside (MAL3-glu), Cyanidin-3-galactoside (C3-gal) and Cyanidin-3-arabinopyranoside (C3-arapy) were analyzed.
(§1) Vessels were pre-treated with single anthocyanins (50 μg/mL) for 1 hours and then stimulated with Angiotensin II for 15 minutes prior to the acquisition. (A) Measurement of ROS production by DHR123 in vessels treated with single anthocyanins and combination of anthocyanins mixed with a ratio 1:1. (B) NADPH oxidase activity in mesenteric arteries exposed to HB or single anthocyanins or combination of anthocyanins mixed with a ratio 1:1. Data are expressed as increase of chemiluminescence per minute.

NADPH oxidase (NOX) = test: NADPH oxidase activity after stimulation with Angiotensin II; type: cell-based, mice; conditions: chemiluminescence per minute, mixtures ratio 1:1
Protocol: Moreover, the analysis of NADPH oxidase (NOX) activity after stimulation with Angiotensin II, a gold-standard inducer of NOX activation was performed.
as §1

mice mesenteric arteries [2] = test: Vascular reactivity: vasorelaxation of phenylephrine-precontracted mice mesenteric arteries; type: cell-based; conditions: increasing doses (5-300 μg/mL), phenylephrine-precontracted vessels
Protocol: Second-order branches of the mesenteric arterial tree were removed from mice to perform vascular studies. […] First, an analysis of vascular reactivity curves was performed.

Row | Compound | Angiotensin II-induced ROS formation (mice mesenteric arteries [1]) | NADPH oxidase (NOX) activity (NADPH oxidase (NOX)) | vasorelaxant action (mice mesenteric arteries [2])
1 | COc1cc(-c2[o+]c3cc(O)cc(O)c3cc2O[C@@H]2O[C@H](CO)[C@H](O)[C@H](O)[C@H]2O)cc(OC)c1O [MAL3-gal, Malvidin-3-galactoside] | able to reproduce the antioxidant action of Healthberry 865® | able to reduce NOX activity | –
2 | Peonidin-3-galactoside [PEO3-gal] | able to reproduce the antioxidant action of Healthberry 865® | able to reduce NOX activity | –
3 | C[C@@H]1O[C@@H](OC[C@H]2O[C@@H](Oc3cc4c(O)cc(O)cc4[o+]c3-c3ccc(O)c(O)c3)[C@H](O)[C@@H](O)[C@@H]2O)[C@H](O)[C@H](O)[C@H]1O [C3-rut, Cyanidin-3-rutinoside] | able to reproduce the antioxidant action of Healthberry 865® | able to reduce NOX activity | –
4 | OC[C@H]1O[C@@H](Oc2cc3c(O)cc(O)cc3[o+]c2-c2ccc(O)c(O)c2)[C@H](O)[C@@H](O)[C@@H]1O [C3-glu, Cyanidin-3-glucoside] | able to reproduce the antioxidant action of Healthberry 865® | able to reduce NOX activity; also recorded: the most powerful anthocyanins closer to the potent effect of Healthberry 865® | –
5 | OC[C@H]1O[C@@H](Oc2cc3c(O)cc(O)cc3[o+]c2-c2cc(O)c(O)c(O)c2)[C@H](O)[C@@H](O)[C@@H]1O [DP3-glu, Delphinidin-3-glucoside] | able to reproduce the antioxidant action of Healthberry 865® | able to reduce NOX activity | –
6 | NCCCC[C@H](N)C(=O)O [L-Lysine] | – | – | did not evoke any vasorelaxant effect
7 | COc1cc(-c2[o+]c3cc(O)cc(O)c3cc2O[C@@H]2O[C@H](CO)[C@@H](O)[C@H](O)[C@H]2O)cc(OC)c1O [MAL3-glu, Malvidin-3-glucoside] | able to reproduce the antioxidant action of Healthberry 865® | able to reduce NOX activity; also recorded: the most powerful anthocyanins closer to the potent effect of Healthberry 865® | –
